Data published in US20260337191A1, “CRYSTAL FORM OF EMRACLIDINE, PREPARATION METHOD THEREFOR, AND USE THEREOF” (Cerevel Therapeutics, LLC, priority 2022, published 2026).

How the values were obtained:
[1] = Stability under mechanical force: ball milling, XRPD; assay type: physicochemical; conditions: 500 rpm, 5 minutes, XRPD before and after
Description: A crystal-form-CSII sample was ball-milled at a vibration speed of 500 rpm for 5 minutes using a ball mill, the sample before and after ball milling was tested by XRPD, the test result is shown in FIG. 17, and crystal form CSII is not changed after ball milling.
A crystal-form-CSIII sample was ball-milled at a vibration speed of 500 rpm for 5 minutes using a ball mill. The sample before and after ball milling was tested by XRPD, the test result is shown in FIG. 22, and crystal form CSIII is not changed after the ball milling.
A crystal-form-CSIV sample was ball-milled at a vibration speed of 500 rpm for 5 minutes using a ball mill, the sample before and after ball milling was tested by XRPD, the test result is shown in FIG. 25, and crystal form CSIV is not changed after ball milling.
A crystal-form-CSV sample was ball-milled at a vibration speed of 500 rpm for 5 minutes using a ball mill, the sample before and after ball milling was tested by XRPD, the test result is shown in FIG. 28, and crystal form CSV is not changed after ball milling.

[2] = Thermal gravimetric analysis (TGA); assay type: physicochemical; conditions: 10° C./min, N2
Description: The thermal gravimetric analysis (TGA) pattern as described in the invention is collected by TA Q500. The parameters for the thermal gravimetric analysis (TGA) method described in the invention are as follows: • scanning speed: 10° C./min, • protective gas: N2.

[3] = Storage stability of crystal form drug substance (HPLC purity and XRPD); assay type: physicochemical
Description: The X-ray powder diffraction pattern described in the invention is collected by a Bruker X-ray powder diffractometer. The parameters for the X-ray powder diffraction method according to the invention are as follows: • X-ray light source: Cu, Kα, • Kα1 (Å): 1.54060; Kα2 (Å): 1.54439, • Kα2/Kα1 intensity ratio: 0.50.
An appropriate amount of a crystal-form-CSI sample was packaged under corresponding packaging conditions and stored at 40° C./75% RH for a certain period of time, the purity and crystal form were determined by HPLC and XRPD, and the results are shown in Table 7.
Open: a sample was placed in a glass vial without a lid and stored in corresponding environment while the vial was open.
An appropriate amount of a crystal-form-CSII sample was packaged under corresponding packaging conditions and stored for a certain period of time at 25° C./60% RH, 40° C./75% RH, and 60° C./75% RH, the purity and crystal form were determined by HPLC and XRPD, and the result is shown in Table 12.
Sealing: The sample was placed in a glass vial, which was covered by a lid and sealed in a double-layer PE bag, followed by an aluminum foil bag. […]
Sealed: The sample was placed in a glass vial, which was covered by a lid and sealed in a double-layer PE bag, followed by an aluminum foil bag. […]
An appropriate amount of a crystal-form-CSV sample was packaged under corresponding packaging conditions and stored for a certain period of time at 25° C./60% RH, 40° C./75% RH, and 60° C./75% RH, the purity and crystal form were determined by HPLC and XRPD, and the result is shown in Table 16.

[4] = Hygroscopicity by dynamic vapor sorption (DVS); assay type: physicochemical; conditions: for weight increase due to hygroscopicity: 25° C.
Description: The dynamic vapor sorption (DVS) pattern for the experiment is collected by an Intrinsic dynamic vapor sorption instrument manufactured by Surface Measurement Systems Ltd. (SMS). Control software for the instrument is DVS-Intrinsic control software. The method parameters of the dynamic vapor sorption instrument are as follows: • temperature: 25° C., • carrier gas, and flow rate: N2, and 200 ml/min, • mass change per unit time: 0.002%/min, • relative humidity range: 0% RH-95% RH.
(§1) About 10 mg of a crystal-form-CSI sample was taken and tested for hygroscopicity using a dynamic vapor sorption (DVS) instrument, with a relative humidity cycle of 30%-90%-0%-90% RH, and a mass change for each humidity was recorded. The sample was tested by XRPD before and after DVS testing. […] The DVS pattern of crystal form CSI is shown in FIG. 13, and the weight increase of crystal form CSI due to hygroscopicity is 0.36% at 30%-80% RH.
as §1, with “crystal-form-CSII” for “crystal-form-CSI”, “0%-90%-0%” for “30%-90%-0%-90%”, “CSII” for “CSI”, “18,” for “13,”, “0.28%” for “0.36%”, “0%-80%” for “30%-80%”
as §1, with “crystal-form-CSIII” for “crystal-form-CSI”, “0%-90%-0%” for “30%-90%-0%-90%”, “CSIII” for “CSI”, “23,” for “13,”, “0.21%” for “0.36%”, “0%-80%” for “30%-80%”
as §1, with “crystal-form-CSIV” for “crystal-form-CSI”, “0%-90%-0%” for “30%-90%-0%-90%”, “CSIV” for “CSI”, “26,” for “13,”, “0.11%” for “0.36%”, “0%-80%” for “30%-80%”
as §1, with “crystal-form-CSV” for “crystal-form-CSI”, “a” for “a relative humidity”, “CSV” for “CSI”, “29,” for “13,”, “0.29%” for “0.36%”

[5] = Crystal form stability in formulation process, XRPD; assay type: physicochemical; conditions: formula Table 8, process Table 10, XRPD
Description: A crystal-form-CSI formulation was prepared by using the formulation formula shown in table 8 and the formulation process shown in table 10, and a formula for mixture of excipients is shown in table 9. A mixture of excipients and the sample before and after the formulation formulas were tested by XRPD, and the result is shown in FIG. 14.
(§2) A crystal-form-CSII formulation was prepared by using the formulation formula shown in Table 8 and the formulation process shown in Table 10, and an excipient formula is shown in Table 9. A mixture of excipients and the sample before and after the formulation formulas were tested by XRPD, and the result is shown in FIG. 19.
as §2, with “crystal-form-CSV” for “crystal-form-CSII”, “30.” for “19.”

[6] = Stability under mechanical force: tableting, XRPD; assay type: physicochemical; conditions: 15 KN, φ 6 mm round tooling, XRPD before and after
[7] = Phase-Ib clinical result, Cerevel Therapeutics; cited from earlier work
[8] = heated from room temperature to 180° C.

crystal form after ball milling [1]	stable for at least ([3]; 40° C./75% RH)	Crystal Form ([3]; initial (before storage))	weight increase due to hygroscopicity ([4]; 0%-80% RH) [%]	crystal form after DVS testing ([4]; 0%-90%-0% RH cycle)	crystal form after formulation formula processes [5]	crystal form after tableting [6]	TGA weight loss [2, 8]	stable for at least ([3]; 25° C./60% RH)	Crystal Form ([3]; 25° C./60% RH, sealed, 6 month)	Purity ([3]; 25° C./60% RH, sealed, 6 month) [%]	Crystal Form ([3]; 40° C./75% RH, sealed, 6 month)	Purity ([3]; 40° C./75% RH, sealed, 6 month) [%]	stable for at least ([3]; 60° C./75% RH)	Crystal Form ([3]; 60° C./75% RH, sealed, 1 month)	Purity ([3]; initial (before storage)) [%]	weight increase due to hygroscopicity ([4]; 30%-80% RH) [%]	crystal form after DVS testing ([4]; 30%-90%-0%-90% RH cycle)	SMILES	change in sample properties after humidity cycle ([4]; 0%-90%-0% RH cycle)	change in sample properties after humidity cycle ([4]; 30%-90%-0%-90% RH cycle)	also measured
not changed	at least 2 months	Form CSIII	0.21	not changed	–	–	–	–	–	–	–	–	–	–	–	–	–	Cc1cc(C)c2c(n1)CN(C(=O)CC1CN(c3ccnc(C(F)(F)F)c3)C1)C2 [Crystal Form CSIII]	–	–	TGA weight loss ([2]; heated from room temperature to 170° C.): substantially no weight loss; Crystal Form ([3]; 40° C./75% RH, sealed, 2 month): Form CSIII
not changed	at least 6 months	Form CSII	0.28	not changed	not changed	not changed	substantially no weight loss	at least 6 months	Form CSII	99.60	Form CSII	99.57	at least 1 month	Form CSII	99.56	–	–	Cc1cc(C)c2c(n1)CN(C(=O)CC1CN(c3ccnc(C(F)(F)F)c3)C1)C2 [Crystal Form CSII]	no significant change in sample properties	–	Purity ([3]; 60° C./75% RH, sealed, 1 month): 99.55%
not changed	at least 6 months	Form CSIV	0.11	not changed	–	–	substantially no weight loss	at least 6 months	Form CSIV	–	Form CSIV	–	at least 1 month	Form CSIV	–	–	–	Cc1cc(C)c2c(n1)CN(C(=O)CC1CN(c3ccnc(C(F)(F)F)c3)C1)C2 [Crystal Form CSIV]	no significant change in sample properties	–	–
remains unchanged	at least 6 months	Form CSI	–	–	not changed	remains unchanged	–	–	–	–	–	–	–	–	99.53	0.36	remains unchanged	Cc1cc(C)c2c(n1)CN(C(=O)CC1CN(c3ccnc(C(F)(F)F)c3)C1)C2 [Crystal Form CSI]	no significant change in sample properties	no significant change in sample properties	Crystal Form ([3]; 40° C./75% RH, open, 6 month): Form CSI; Purity ([3]; 40° C./75% RH, open, 6 month): 99.59%
not changed	at least 6 months	Form CSV	–	–	not changed	not changed	–	at least 6 months	Form CSV	99.96	Form CSV	99.96	at least 2 month	–	99.96	0.29	not changed	Cc1cc(C)c2c(n1)CN(C(=O)CC1CN(c3ccnc(C(F)(F)F)c3)C1)C2 [Crystal Form CSV]	–	no significant change in sample properties	TGA weight loss ([2]; heated from 35° C. to 150° C.): 3.8%; Crystal Form ([3]; 60° C./75% RH, sealed, 2 month): Form CSV; Purity ([3]; 60° C./75% RH, sealed, 2 month): 99.95%
–	–	–	–	–	–	–	–	–	–	–	–	–	–	–	–	–	–	Cc1cc(C)c2c(n1)CN(C(=O)CC1CN(c3ccnc(C(F)(F)F)c3)C1)C2 [Emraclidine, 1-(2,4-dimethyl-5,7-dihydro-6H-pyrrolo[3,4-b]pyridin-6-yl)-2-{1-[2-(trifluoromethyl)pyridin-4-yl]azetidin-3-yl}ethanone]	–	–	antipsychotic activities compared to placebos [7]: clinically significant antipsychotic activities
